Key:
Assay type in all cases: in vivo
[1] = system: Concord grape vines; test: Example 1: bud break and shoot weight of potted Concord grape vines in a greenhouse; settings: for Shoot Weight / shoot weight, more than control: 41 days after treatment; for time to 50% bud break, faster than control: rates of Table 1: malonate 3,000 and 10,000 ppm, penthiopyrad 1,428 ppm, inpyrfluxam 486 ppm, pydiflumetofen 968 ppm
Protocol: (§1) To assess the ability of SDHIs to promote and synchronize bud break and increase shoot weight, SDHIs were applied to shoots of potted 1 year old Concord grape vines grown in a greenhouse and examined for bud break (initiation of growth). Hydrogen cyanamide, malonate (malonic acid), inpyrfluxam, penthiopyrad and pydiflumetofen were each applied individually to the shoots of five potted concord grape rootstocks that were pruned to 5 nodes. Plants were evaluated for bud break periodically starting at 5 days after treatment. Plants were evaluated for shoot weight at 41 days after treatment.

[2] = system: Concord grape vines; test: Example 2: bud break and shoot weight of potted Concord grape vines, single SDHIs and mixtures (OCE/ECE, Abbott method); settings: for Shoot Weight: 41 days after treatment
Protocol: as §1, with “of” for “of potted”, “old potted” for “old”, “inpyrfluxam,” for “inpyrfluxam, penthiopyrad”, “mixtures of malonate and inpyrfluxam” for “pydiflumetofen”, “applied” for “applied individually”
To determine if the mixtures provided unexpected results, the observed combined efficacy (“OCE”) was divided by the expected combined efficacy (“ECE”) to give an OCE/ECE ratio wherein the expected ECE is calculated by the Abbott method: […]
wherein ECE is the expected combined efficacy and in which A and B are the efficacy provided by the single active ingredients. If the ratio between the OCE of the mixture and the ECE of the mixture is greater than 1, then greater than expected interactions are present in the mixture. (Gisi, The American Phytopathological Society, 86:11, 1273-1279, 1996).

[3] = system: Thompson seedless grapes; test: Example 3: field trial, bud break and shoot growth of Thompson seedless grapes; design: Shoot Growth: unit not given beside the values; settings: for Shoot Growth: equals sum of the three length classes
[4] = system: Thompson seedless grapes; test: as above
Protocol: Thompson seedless grapes were grown in the field in Kanoneiland, Northern Cape, South Africa during the 2021 growing season. Hydrogen cyanamide, malonate (malonic acid), and inpyrfluxam were each applied to the shoots of grape plants at 2 or 4 weeks before natural bud break. Plants were evaluated for bud break at 7 and 21 days after 1st bud break.

[5] = 2% v/v, 4 weeks before natural bud break
[6] = 2% v/v, applied 4 weeks before natural bud break
[7] = 486 ppm, applied 2 weeks before natural bud break
[8] = 486 ppm, applied 4 weeks before natural bud break
[9] = 486 ppm (Table 4), 2 weeks before natural bud break
[10] = 486 ppm, 2 weeks before natural bud break
[11] = 486 ppm, 4 weeks before natural bud break
[12] = applied at 10,000 ppm to shoots
[13] = 10,000 ppm, applied 2 weeks before natural bud break
[14] = 10,000 ppm, applied 4 weeks before natural bud break
[15] = 10,000 ppm (Table 4), 2 weeks before natural bud break
[16] = 10,000 ppm, 2 weeks before natural bud break
[17] = 10,000 ppm, 4 weeks before natural bud break

CC(C)CC(C)c1sccc1NC(=O)c1cn(C)nc1C(F)(F)F (stereo not shown) [Penthiopyrad, penthiopyrad]
days to 100% bud break, faster than control ([1]; 1,428 ppm (Table 1)): 38%
Days to 50% BB ([1]; applied at 1,428 ppm to shoots): 7 days
Days to 100% BB ([1]; applied at 1,428 ppm to shoots): 13 days
Shoot Weight ([1]; applied at 1,428 ppm): 29.4 g
time to 50% bud break, faster than control [1]: about 40%

N#CN [Hydrogen cyanamide, hydrogen cyanamide]
Days to 50% BB ([1]; applied at 2% v/v to shoots): 12 days
Days to 100% BB ([1]; applied at 2% v/v to shoots): 17 days
Shoot Weight ([1]; applied at 2% v/v): 27.4 g
effect on the number of days to 50% bud break (in words) ([1]; rates of Table 1, hydrogen cyanamide 2% v/v): no effect
Days to 50% BB ([2]; applied at 2% v/v to shoots): 18 days
Days to 100% BB ([2]; applied at 2% v/v to shoots): 16 days
Shoot Weight ([2]; applied at 2% v/v): 8.9 g
Shoot Growth (%) 1-5 cm [3, 5]: 21.7%
Shoot Growth (%) 5-10 cm [3, 5]: 16.1%
Shoot Growth (%) >10 cm [3, 5]: 29.3 c %
Shoot Growth [3, 5]: 67.2
Bud Break % at 7 days after 1st bud break [3, 6]: 63.2 b %
Bud Break % at 21 days after 1st bud break [3, 6]: 81.3 bcd %

CC1CC(C)(C)c2c(F)ccc(NC(=O)c3cn(C)nc3C(F)F)c21 (stereo not shown) [Inpyrfluxam, inpyrfluxam]
shoot weight, more than control ([1]; 486 ppm (Table 1)): 44%
Days to 50% BB ([1]; applied at 486 ppm to shoots): 9 days
Days to 100% BB ([1]; applied at 486 ppm to shoots): 17 days
Shoot Weight ([1]; applied at 486 ppm): 47 g
time to 50% bud break, faster than control [1]: about 25%
time to 50% bud break, faster than control ([2]; 486 ppm): about 12%
time to 100% bud break, faster than control ([2]; 486 ppm): 19%
time to 100% bud break, faster than control ([2]; 972 ppm): 38%
Days to 50% BB ([2]; applied at 97.2 ppm to shoots): 27 days
Days to 100% BB ([2]; applied at 97.2 ppm to shoots): 17 days
Shoot Weight ([2]; applied at 97.2 ppm): 9.1 g
Days to 50% BB ([2]; applied at 194.4 ppm to shoots): 29 days
Days to 100% BB ([2]; applied at 194.4 ppm to shoots): 28 days
Shoot Weight ([2]; applied at 194.4 ppm): 5.4 g
Days to 50% BB ([2]; applied at 486 ppm to shoots): 22 days
Days to 100% BB ([2]; applied at 486 ppm to shoots): 13 days
Shoot Weight ([2]; applied at 486 ppm): 7.6 g
Days to 50% BB ([2]; applied at 972 ppm to shoots): 27 days
Days to 100% BB ([2]; applied at 972 ppm to shoots): 10 days
Shoot Weight ([2]; applied at 972 ppm): 6.2 g
Bud Break % at 7 days after 1st bud break [4, 7]: 29.7 a %
Bud Break % at 21 days after 1st bud break [4, 7]: 100 f %
Bud Break % at 21 days after 1st bud break ([4]; 486 ppm, applied 2 weeks before natural bud break, listed as inpyrfluxam): statistically significant increase over control
Bud Break % at 7 days after 1st bud break [4, 8]: 36.8 a %
increase in shoot growth over Dormex [3, 9]: 15%
increase in shoot growth over control [3, 9]: 50%
increase in shoot growth over control ([3]; 486 ppm (Table 4), 4 weeks before natural bud break): 27%
Shoot Growth (%) 1-5 cm [3, 10]: 27.7%
Shoot Growth (%) 5-10 cm [3, 10]: 21.1%
Shoot Growth (%) >10 cm [3, 10]: 28.8 c %
Shoot Growth [3, 10]: 77.6
Shoot Growth (%) 1-5 cm [3, 11]: 25.9%
Shoot Growth (%) 5-10 cm [3, 11]: 20.3%
Shoot Growth (%) >10 cm [3, 11]: 19.7 b %
Shoot Growth [3, 11]: 65.8
Bud Break % at 21 days after 1st bud break [3, 8]: 90.3 def %
Bud Break % at 21 days after 1st bud break ([3]; 486 ppm, applied 4 weeks before natural bud break, listed as inpyrfluxam): statistically significant increase over control

CON(C(=O)c1cn(C)nc1C(F)F)C(C)Cc1c(Cl)cc(Cl)cc1Cl (stereo not shown) [Pydiflumetofen, pydiflumetofen]
Days to 50% BB ([1]; applied at 968 ppm to shoots): 9 days
Days to 100% BB ([1]; applied at 968 ppm to shoots): 26 days
Shoot Weight ([1]; applied at 968 ppm): 24 g
time to 50% bud break, faster than control [1]: about 25%

O=C(O)CC(=O)O [Malonate, malonic acid]
days to 100% bud break, faster than control ([1]; 3,000 ppm): 10%
shoot weight, more than control ([1]; 3,000 ppm): 28%
days to 100% bud break, faster than control ([1]; 10,000 ppm): 19%
shoot weight, more than control ([1]; 10,000 ppm): 58%
Days to 50% BB ([1]; applied at 3,000 ppm to shoots): 7 days
Days to 100% BB ([1]; applied at 3,000 ppm to shoots): 19 days
Shoot Weight ([1]; applied at 3,000 ppm): 41.75 g
Days to 50% BB [1, 12]: 7 days
Days to 100% BB [1, 12]: 17 days
Shoot Weight ([1]; applied at 10,000 ppm): 51.4 g
time to 50% bud break, faster than control [1]: about 40%
time to 50% bud break, faster than control ([2]; 1,000 ppm, 3,000 ppm and 10,000 ppm): about 4%
time to 100% bud break, faster than control ([2]; 10,000 ppm): 25%
Days to 50% BB ([2]; applied at 300 ppm to shoots): 25 days
Days to 100% BB ([2]; applied at 300 ppm to shoots): 20 days
Shoot Weight ([2]; applied at 300 ppm): 8.0 g
Days to 50% BB ([2]; applied at 1,000 ppm to shoots): 24 days
Days to 100% BB ([2]; applied at 1,000 ppm to shoots): 26 days
Shoot Weight ([2]; applied at 1,000 ppm): 8.8 g
Days to 50% BB ([2]; applied at 3,000 ppm to shoots): 24 days
Days to 100% BB ([2]; applied at 3,000 ppm to shoots): 17 days
Shoot Weight ([2]; applied at 3,000 ppm): 8.5 g
Days to 50% BB [2, 12]: 24 days
Days to 100% BB [2, 12]: 12 days
Shoot Weight ([2]; applied at 10,000 ppm): 7.9 g
Bud Break % at 7 days after 1st bud break [4, 13]: 33.7 a %
Bud Break % at 21 days after 1st bud break [4, 13]: statistically significant increase over control
Bud Break % at 7 days after 1st bud break [4, 14]: 29 a %
increase in shoot growth over Dormex [3, 15]: 11%
increase in shoot growth over control [3, 15]: 44%
increase in shoot growth over control ([3]; 10,000 ppm (Table 4), 4 weeks before natural bud break): 20%
Shoot Growth (%) 1-5 cm [3, 16]: 23.3%
Shoot Growth (%) 5-10 cm [3, 16]: 19.1%
Shoot Growth (%) >10 cm [3, 16]: 32 c %
Shoot Growth [3, 16]: 74.5
Shoot Growth (%) 1-5 cm [3, 17]: 27.7%
Shoot Growth (%) 5-10 cm [3, 17]: 17.8%
Shoot Growth (%) >10 cm [3, 17]: 16.6 b %
Shoot Growth [3, 17]: 62
Bud Break % at 21 days after 1st bud break [3, 13]: 98.2 ef %
Bud Break % at 21 days after 1st bud break [3, 14]: 87.5 cde %

Source: US20220313662A1, “SUCCINATE DEHYDROGENASE INHIBITORS FOR BREAKING DORMANCY” (Valent BioSciences LLC, priority 2021, published 2022)
